Like-named read-outs stand apart in the source and are kept apart here.
What was measured:
[1] = system: ALK-positive metastatic NSCLC; design: method as in PMID 36065449; conditions: 180 mg QD with 7-day lead-in at 90 mg QD; median follow-up 28.3 months; cited from earlier work
[2] = design: method as in PMID 32816246; conditions: single oral 180 mg [14C]-brigatinib; cited from earlier work
[3] = design: method as in PMID 30570839; conditions: versus fasted conditions; healthy participants; cited from earlier work
[4] = Single oral 90-mg dose plasma PK in participants with chronic hepatic impairment and matched healthy participants; assay type: in vivo, human; conditions: for Tmax / half-life / AUC(0-t) / AUC(0-inf): human, plasma, po, 90 mg; for Tmax / half-life / AUC(0-t) / AUC(0-inf) / Tmax, median (range) / CL/Fu, unbound apparent oral clearance, geometric mean (geometric %CV) / Vz/Fu, unbound apparent volume of distribution, geometric mean (geometric %CV) / Cmax,u, geometric mean (geometric %CV): single oral 90 mg; for Tmax / Tmax, median (range): fasted; for Tmax: read-out: Tmax, median (range); for half-life: read-out: t1/2, terminal elimination half-life, geometric mean (geometric %CV) (converted); for AUC(0-t) / AUC(0-inf) / Cmax,u, geometric mean (geometric %CV): unbound; for AUC(0-t): read-out: AUC0−last,u, geometric mean (geometric %CV); for AUC(0-inf): read-out: AUC0−∞,u, geometric mean (geometric %CV)
Method: This open-label, parallel-group, inpatient, nonrandomized study was performed at 1 clinical study site, the Orlando Clinical Research Center (Orlando, FL, USA), and evaluated the PK of brigatinib after administration of a single oral 90-mg dose in participants with chronic hepatic impairment and in healthy participants with normal hepatic function. The study consisted of a screening period of up to 22 days and a single treatment and assessment period that included a 10-day (9-night) inpatient stay (Day −1 to Day 9). On the morning of Day 1, each participant received a single oral dose of 90 mg brigatinib under fasting conditions with approximately 240 mL of water. Fasting was required for approximately 10 hours before study drug dosing, for approximately 4 hours postdose, and for at least 8 hours before clinical laboratory tests. Meals were standardized for all participants. Water was permitted ad libitum except for the period between approximately 1 hour before and 1 hour after dosing. Participants remained in the clinic through 192 hours postdose for PK sample collection and were discharged from the clinical research site on Day 9.
Blood samples were collected before brigatinib administration (predose) and at 0.5, 1, 1.5, 2, 2.5, 3, 4, 6, 8, 12, 24, 36, 48, 72, 96, 120, 144, 168, and 192 hours following brigatinib administration to measure brigatinib plasma concentrations. Samples to assess brigatinib plasma protein binding were collected at 2, 8, and 24 hours postdose.
Plasma samples were analyzed for brigatinib concentrations using a previously reported dual-range assay with a lower limit of quantitation of 0.100 ng/mL and an upper limit of quantitation of 2500 ng/mL [14].
The PK-evaluable population was defined as participants who received the single dose of brigatinib, had no major protocol deviations that affected the PK analyses, and had sufficient data to calculate PK parameters. Individual participant brigatinib plasma concentration-time profiles were analyzed via noncompartmental analysis using Phoenix WinNonLin version 6.4 (Certara, Inc., Princeton, NJ) to calculate plasma PK parameters. Plasma PK parameters calculated for brigatinib included maximum observed plasma concentration (Cmax), time to first maximum observed plasma concentration (Tmax), area under the plasma concentration-time curve from time 0 to the time of the last measurable concentration (AUC0−last), area under the plasma concentration-time curve from time 0 to infinity (AUC0−∞), terminal elimination half-life (t1/2), apparent oral clearance (CL/F), and apparent volume of distribution during the terminal disposition phase (Vz/F). The fraction of unbound brigatinib in plasma was calculated using the following formula: % free (unbound) = [free brigatinib concentration measured in buffer after dialysis] / [total brigatinib concentration measured in plasma] × 100. Unbound brigatinib PK parameters were derived from the following formula (except for the unbound CL/F and unbound Vz/F, which were calculated as total CL/F or total Vz/F divided by the individual participant’s overall mean fraction unbound): unbound PK parameter = (PK parameter based on total concentrations) × (individual participant’s overall mean fraction unbound value).
Descriptive statistics, including mean, standard deviation (SD), percent coefficient of variation (%CV), and median, minimum, and maximum values, were calculated for each time point for plasma brigatinib concentrations for the healthy participant and each Child-Pugh group. Arithmetic means, SD, %CV, median, minimum, and maximum values, and the number of observations were calculated for the PK parameters. Geometric mean and geometric %CV were derived for all parameters, except Tmax, which was reported as median (minimum–maximum). Statistical comparisons of unbound brigatinib PK parameters were made among the hepatic function groups (ie, healthy participants, Child-Pugh classes A, B, and C) using an analysis of variance. […]

CYP2C8 = system: CYP2C8; design: method as in PMID 31287236; conditions: cited from earlier work
[5] = design: method as in PMID 27836716, PMID 29915924; conditions: cited from earlier work
[6] = system: cytochrome P450 (CYP) 2C8 and CYP3A4; design: method as in ref 13 = [13]; 13. Alunbrig [package insert] (2022) Takeda Pharmaceuticals America, Inc., Lexington, MA; conditions: in vitro; cited from earlier work
[7] = mild (Child-Pugh A) vs normal hepatic function
[8] = moderate (Child-Pugh B) vs normal hepatic function
[9] = severe (Child-Pugh C) vs normal hepatic function

## COc1cc(N2CCC(N3CCN(C)CC3)CC2)ccc1Nc1ncc(Cl)c(Nc2ccccc2P(C)(C)=O)n1 [brigatinib]
[1]
  IRC-assessed confirmed objective response rate (ORR): 56%
  IRC-assessed median progression-free survival (PFS): 16.7 months
[2]
  administered dose recovered in the feces: approximately 65%
  administered dose recovered in the urine: 25%
  fecal recovery as unchanged brigatinib: 41%
  urinary recovery as unchanged brigatinib: 86%
[3]
  effect of a high-fat, high-calorie meal on total systemic exposure (AUC): no clinically meaningful effect
[4]; Child-Pugh C vs healthy participants with normal hepatic function
  geometric mean AUC0−last,u higher than in healthy participants: 34%
[4]; mild (Child-Pugh A) hepatic impairment (n=6)
  Tmax: 1.75 h
[4]; severe (Child-Pugh C) hepatic impairment (n=6)
  Tmax: 0.5 h
[4]; mild (Child-Pugh A) (n=6)
  half-life: 2820 min
  AUC(0-t): 522 ng·h/mL
  AUC(0-inf): 539 ng·h/mL
  CL/Fu, unbound apparent oral clearance, geometric mean (geometric %CV): 167 (24.9) L/h
  Vz/Fu, unbound apparent volume of distribution, geometric mean (geometric %CV): 11,300 (45.8) L
  Cmax,u, geometric mean (geometric %CV): 28.7 (9.5) ng/mL
[4]; moderate (Child-Pugh B) (n=6)
  half-life: 2920 min
  AUC(0-t): 578 ng·h/mL
  AUC(0-inf): 601 ng·h/mL
  CL/Fu, unbound apparent oral clearance, geometric mean (geometric %CV): 150 (39.8) L/h
  Vz/Fu, unbound apparent volume of distribution, geometric mean (geometric %CV): 10,500 (29.5) L
  Cmax,u, geometric mean (geometric %CV): 27.8 (24.8) ng/mL
[4]; normal hepatic function (n=9)
  half-life: 2860 min
  AUC(0-t): 581 ng·h/mL
  AUC(0-inf): 603 ng·h/mL
  Tmax, median (range): 2.00 (1.00‒6.00) h
  CL/Fu, unbound apparent oral clearance, geometric mean (geometric %CV): 149 (25.0) L/h
  Vz/Fu, unbound apparent volume of distribution, geometric mean (geometric %CV): 10,200 (31.0) L
  Cmax,u, geometric mean (geometric %CV): 30.3 (27.2) ng/mL
[4]; severe (Child-Pugh C) (n=6)
  half-life: 3060 min
  AUC(0-t): 781 ng·h/mL
  AUC(0-inf): 829 ng·h/mL
  CL/Fu, unbound apparent oral clearance, geometric mean (geometric %CV): 109 (20.0) L/h
  Vz/Fu, unbound apparent volume of distribution, geometric mean (geometric %CV): 7,990 (33.2) L
  Cmax,u, geometric mean (geometric %CV): 50.0 (34.5) ng/mL
[4]; [7]
  AUC0−last,u geometric LSM ratio (90% CI): 89.77 (70.37–114.52) %
  AUC0−∞,u geometric LSM ratio (90% CI): 89.32 (69.79–114.31) %
  Cmax,u geometric LSM ratio (90% CI): 94.75 (75.36–119.12) %
[4]; [8]
  AUC0−last,u geometric LSM ratio (90% CI): 99.41 (77.93–126.82) %
  AUC0−∞,u geometric LSM ratio (90% CI): 99.55 (77.78–127.41) %
  Cmax,u geometric LSM ratio (90% CI): 92.01 (73.18–115.68) %
[4]; [9]
  AUC0−last,u geometric LSM ratio (90% CI): 134.38 (105.34–171.43) %
  AUC0−∞,u geometric LSM ratio (90% CI): 137.41 (107.37–175.86) %
  Cmax,u geometric LSM ratio (90% CI): 165.26 (131.44–207.78) %
[4]; moderate (Child-Pugh B) hepatic impairment (n=6)
  Tmax, median (range): 2.00 (0.50‒3.00) h
CYP2C8
  effect of a strong CYP2C8 inhibitor on brigatinib systemic exposure: no clinically relevant effect
[5]
  mean plasma terminal elimination half-life: approximately 25 hours
[6]
  metabolizing enzymes: primarily metabolized by cytochrome P450 (CYP) 2C8 and CYP3A4

Reference: PMC10289985, “Brigatinib pharmacokinetics in patients with chronic hepatic impairment” (Investigational New Drugs, 2023)
